{"source": "paper PMC549409", "about": "(Nucleic Acids Research, 2005)", "biological_target": "Has1p (Saccharomyces cerevisiae, UniProt Q03532)", "sequence (Q03532 whole entry)": "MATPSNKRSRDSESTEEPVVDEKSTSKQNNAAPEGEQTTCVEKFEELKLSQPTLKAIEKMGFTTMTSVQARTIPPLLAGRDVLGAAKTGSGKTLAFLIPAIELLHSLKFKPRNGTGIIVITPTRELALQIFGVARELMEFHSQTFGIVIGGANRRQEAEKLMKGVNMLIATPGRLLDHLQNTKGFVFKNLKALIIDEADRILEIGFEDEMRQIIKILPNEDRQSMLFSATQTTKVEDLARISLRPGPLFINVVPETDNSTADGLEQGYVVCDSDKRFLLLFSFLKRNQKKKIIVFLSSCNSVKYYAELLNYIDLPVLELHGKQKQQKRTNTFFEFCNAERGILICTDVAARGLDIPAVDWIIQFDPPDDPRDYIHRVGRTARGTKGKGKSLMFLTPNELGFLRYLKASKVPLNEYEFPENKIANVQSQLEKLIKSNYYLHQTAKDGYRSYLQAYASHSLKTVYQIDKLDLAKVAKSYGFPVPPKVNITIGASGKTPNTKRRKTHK", "assay": "malachite green ATPase assay, ADP competition", "type": "biochemical", "settings": "1 mM ADP with 1 mM ATP; total yeast RNA; pH 6.5; 2 mM MgCl2; 30°C; data not shown", "data": [{"smiles": "Nc1ncnc2c1ncn2[C@@H]1O[C@H](COP(=O)(O)OP(=O)(O)O)[C@@H](O)[C@H]1O", "note": "[ADP]", "values": [{"measurement": "fold reduction of ATPase activity at 1 mM ADP", "value": 5, "unit": "fold"}]}]}
